The target of data set [1] is T1, Bcrp in the gut and biliary compartments (Rattus norvegicus, UniProt Q80W57).
T1 sequence (Q80W57 1-657): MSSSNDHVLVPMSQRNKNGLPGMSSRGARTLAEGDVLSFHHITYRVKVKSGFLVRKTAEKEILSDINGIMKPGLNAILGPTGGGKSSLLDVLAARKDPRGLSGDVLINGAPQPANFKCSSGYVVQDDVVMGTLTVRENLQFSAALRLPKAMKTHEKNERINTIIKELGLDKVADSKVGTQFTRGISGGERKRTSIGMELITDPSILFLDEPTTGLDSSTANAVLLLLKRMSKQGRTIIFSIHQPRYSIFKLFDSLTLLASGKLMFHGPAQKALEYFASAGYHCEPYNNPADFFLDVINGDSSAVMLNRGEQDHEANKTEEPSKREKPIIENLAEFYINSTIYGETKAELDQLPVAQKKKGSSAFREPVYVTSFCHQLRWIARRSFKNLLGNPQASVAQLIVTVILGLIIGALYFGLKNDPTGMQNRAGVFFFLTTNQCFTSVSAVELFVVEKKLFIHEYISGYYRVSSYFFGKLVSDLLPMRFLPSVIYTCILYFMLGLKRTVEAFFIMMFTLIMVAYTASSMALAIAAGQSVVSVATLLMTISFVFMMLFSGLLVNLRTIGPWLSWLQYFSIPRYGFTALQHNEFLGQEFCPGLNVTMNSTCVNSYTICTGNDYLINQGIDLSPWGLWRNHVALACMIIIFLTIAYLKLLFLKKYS
As to the kind of experiment: Oral PK of BCRP substrates with constant infusion of elacridar. The note with it: oral substrate with constant infusion of elacridar. It is filed as in vivo.

The nature of data set [2]: Valspodar plasma and brain exposure, constant infusion or IV bolus in rats. The note with it: rat; for concentration at 4 h: Sprague Dawley, plasma, intravenous. It is filed as in vivo, Sprague Dawley rats.
Data set [3] is described as follows: Rat plasma protein binding. It is filed as in vitro ADME.
The subject of data set [4] is rat P-gp at the BBB. The data set can be described thus: In vivo efflux ratio. Set-up: species or system Sprague Dawley rats. The note with it: constant infusion, inhibition of P-gp at the BBB.
In data set [5] the test system is P-gp. Particulars: ref 26 (Smith et al, 1998); cited from earlier work.
The nature of data set [6]: Tolerability in rats. The format is in vivo.
Data set [7] relates to P-gp and Bcrp (rat, blood-brain barrier). As to the kind of experiment: In vivo efflux ratio. Set-up: species or system Sprague Dawley rats. Particulars: Sprague Dawley, intravenous, with elacridar 8.9 mg/hr/kg, 4.5-hour constant infusion.
Data set [8] relates to BCRP. Particulars: BCRP knockout; cited from earlier work.
The test system of data set [9] is MDCK-BCRP cells. The note with it: range of substrates, well documented (ref not given); cited from earlier work.
The subject of data set [10] is Caco-2 cells. The note with it: range of substrates, well documented (ref not given); cited from earlier work.
Data set [11] can be described thus: Elacridar plasma and brain exposure, constant infusion in rats. The format is in vivo, Sprague Dawley rats. The note with it: rat; for concentration at 4 h: Sprague Dawley, intravenous.
[12] abbreviates: constant infusion, based upon 3x the half-life.

Consider `O=C(O)c1cc(/N=N/c2ccc(S(=O)(=O)Nc3ccccn3)cc2)ccc1O` [sulfasalazine], for which the “increase in liver concentrations” value in data set [1] (8 hours post-dose) was 4 fold. Also, in [1] (up to 8 hours post-dose), the half-life entry is “significant increase”.
On to `C/C=C/C[C@@H](C)C(=O)[C@H]1C(=O)N[C@@H](C(C)C)C(=O)N(C)CC(=O)N(C)[C@@H](CC(C)C)C(=O)N[C@@H](C(C)C)C(=O)N(C)[C@@H](CC(C)C)C(=O)N[C@@H](C)C(=O)N[C@H](C)C(=O)N(C)[C@@H](CC(C)C)C(=O)N(C)[C@@H](CC(C)C)C(=O)N(C)[C@@H](C(C)C)C(=O)N1C` [valspodar], for which the concentration at 4 h was 2140 nM in [2] (8 mg/hr/kg, free plasma exposure, maximum soluble dose 8 mg/hr/kg constant infusion) and 32 to 2590 ng/mL in [2] (free plasma exposure (mean), range over doses, 0.09 to 8 mg/hr/kg constant infusion over 4.5 hours, rat plasma binding = 92%). Also, the “time to steady state in plasma” value in data set [2] (setting [12]) was at most 2.5 h. Moreover, the rat plasma binding in [3] (mean) worked out at 92%. Besides, the “minimal (lowest) efficacious dose” value in [4] was determined as 0.9 mg/h/kg. For the same compound, in [5], the “decrease in in vitro efficacy from serum binding” value is 23 fold. Besides, the side effects entry in [6] (IV bolus doses at 10 mg/kg or higher and repeat doses of 5 mg/kg or higher with less than 2 h between doses) was “lethargy and increased urination”; in data set [6] (constant infusion 0.9 mg/hr/kg and 2.7 mg/hr/kg up to 8 hours), “No side effects were observed”; in [6] (constant infusion, highest dose 8 mg/hr/kg), “some instances were observed”.
The efflux ratio is the permeability from basolateral to apical divided by that in the opposite direction, in the common usage. As for `COc1ccc(Cl)cc1C(=O)NCCc1ccc(S(=O)(=O)NC(=O)NC2CCCCC2)cc1` [glyburide], in data set [7], the efflux ratio at 4 h came to 5.4. In data set [8], the “increase in placental tissue concentration” value is reported as 2.5 fold.
Usually IC50 stands for the concentration at which inhibition is half-maximal. In the case of `COc1cc2c(cc1OC)CN(CCc1ccc(NC(=O)c3cccc4c(=O)c5cccc(OC)c5[nH]c34)cc1)CC2` [elacridar, 9,10‐dihydro‐5‐methoxy‐9‐oxo‐N‐[4‐[2‐(1,2,3,4‐tetrahydro‐6,7‐dimethoxy‐2‐isoquinolinyl)ethyl]phenyl]‐4‐acridine‐carboxamide], in data set [3] (well known (ref 27), confirmed in-house), the “free in rat plasma (free fraction)” value amounted to 1.5%. Besides, the 50% inhibitory concentration (IC50) was 300 nM in data set [9] and 600 nM in [10]. Further, in data set [6] (any study conditions up to 8-hour duration), the side effects result is “no negative side effects were observed”. Also, the concentration at 4 h in [11] (brain, 8.9 mg/hr/kg, total drug in brain, elacridar 8.9 mg/hr/kg constant infusion) is over 45000 ng/g; in data set [11] (plasma, 8.9 mg/hr/kg, Elacridar (total plasma), elacridar 8.9 mg/hr/kg, 4.5-hour constant infusion, mean), over 2000 ng/mL; in data set [11] (plasma, 8.9 mg/hr/kg, steady state free plasma, elacridar 8.9 mg/hr/kg constant infusion (maximum)), 35 to 70 nM; in [11] (plasma, free plasma exposure, range over doses, 0.009 to 8.9 mg/hr/kg constant infusion, 1.5% rat plasma free fraction), 0.025 to 49 ng/mL; in [11] (plasma, total plasma exposure (mean), range over doses, 0.009 to 8.9 mg/hr/kg constant infusion over 4.5 hours), 1.6 to 3270 ng/mL. Besides, the “time to steady state in plasma” value in data set [11] (setting [12]) is at most 2.5 h.
Turning to `CC[C@@]1(O)C(=O)OCc2c1cc1n(c2=O)Cc2cc3c(CN(C)C)c(O)ccc3nc2-1` [topotecan], the “clearance (calculated t1/2 and liver concentrations)” value in data set [1] is “not impacted”.

The values are drawn from paper PMC7931226 (Pharmacology Research & Perspectives, 2021).
